Measurements from patent publication US20050159352A1, “Use of monocarboxylate transporter protein for thyroid hormone transport” (priority 2002, published 2005).
Read-outs that look alike come from different tables or passages of the source.

Assays:
MCT8 [1] = molecular target: T1, MCT8 (Rattus norvegicus, UniProt Q8K1P8, G227D/I169T/S199P/T171I); assay: Transport (uptake) of radioactive ligands by MCT8 expressed in X. laevis oocytes; assay type: cell-based; set-up: the stop codon of MCT8 was removed by performing PCR using the same sense primer as above; expressed in transfected cells; host or cells: Xenopus laevis oocytes injected with cRNA transcribed from pGEM-HeJuel
T1 sequence (Q8K1P8 whole entry I169T/T171I/S199P/G227D): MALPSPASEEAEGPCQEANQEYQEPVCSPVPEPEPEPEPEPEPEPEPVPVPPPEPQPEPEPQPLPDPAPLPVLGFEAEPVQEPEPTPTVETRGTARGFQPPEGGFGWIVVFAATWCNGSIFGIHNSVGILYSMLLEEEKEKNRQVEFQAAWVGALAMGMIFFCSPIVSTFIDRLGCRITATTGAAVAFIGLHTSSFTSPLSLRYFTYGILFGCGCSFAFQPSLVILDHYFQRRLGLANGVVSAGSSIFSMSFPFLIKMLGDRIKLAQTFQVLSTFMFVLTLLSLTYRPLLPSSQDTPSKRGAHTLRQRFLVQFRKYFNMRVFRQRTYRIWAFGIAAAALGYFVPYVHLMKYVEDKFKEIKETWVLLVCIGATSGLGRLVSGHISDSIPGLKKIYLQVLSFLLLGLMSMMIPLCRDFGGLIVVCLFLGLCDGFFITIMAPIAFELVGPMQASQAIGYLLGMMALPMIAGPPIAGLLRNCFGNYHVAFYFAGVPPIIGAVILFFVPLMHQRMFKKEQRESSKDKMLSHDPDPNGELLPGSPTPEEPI
Protocol: Xenopus oocytes were isolated and injected with 4.6 ng rat MCTS cRNA. After 3 days, groups of 10 injected or uninjected oocytes were incubated for 60 mm at 25 C with 10 nM radioactive iodothyronines in 0.1 ml medium. Uptake of iodothyronines was determined as previously described (18).
(§1) Oocytes were isolated and allowed to recover overnight at 18 C in modified Barth's solution containing 20 IU/ml penicillin and 20 gg/ml streptomycin as described before (23). […] Uninjected or water injected oocytes were used as controls.
(§2) Transport measurements in oocytes—Oocytes were washed and preincubated at 18 C in standard uptake solution (100 mM NaCl, 2 mM KCl, 1 mM CaCl2, 1 mM MgCl2, 10 mM HEPES, and 10 mM Tris, pH 7.5). Usually, transport was tested by incubation of groups of 5-10 oocytes for 2-60 mm at 25 C with 10 nM [1251]iodothyronines or 10 μM [3H]amino acids in 0.1 ml standard uptake solution. The possible Na^+ dependence of transport was tested by preincubation and incubation in Na^+-free uptake solution in which NaCl was replaced by choline chloride. The influence of the temperature on the uptake rate was tested by the incubation of oocytes with uptake solutions at different temperatures between 4 and 37 C. […] The incubation was stopped by aspiration of the medium, and oocytes were washed 4 times at 4 C with standard uptake solution containing 0.1% BSA.

MCT8 [2] = molecular target: T1, MCT8; assay: Inhibition of uptake of labeled T4 and T3 in MCT8 cRNA-injected oocytes by putative competitors; assay type: cell-based; set-up: the stop codon of MCT8 was removed by performing PCR using the same sense primer as above; expressed in transfected cells; host or cells: Xenopus laevis oocytes injected with cRNA transcribed from pGEM-HeJuel
Protocol: as §1
as §2, with “Usually, transport was tested by incubation of groups of 5-10 oocytes for 2-60 mm at 25 C with 10 nM [1251]iodothyronines or 10 μM [3H]amino acids in 0.1 ml standard uptake solution.” left out

rat MCT1 = molecular target: T2, rat MCT1 (Rattus norvegicus, UniProt P53987); details: data not shown
T2 sequence (P53987 1-494): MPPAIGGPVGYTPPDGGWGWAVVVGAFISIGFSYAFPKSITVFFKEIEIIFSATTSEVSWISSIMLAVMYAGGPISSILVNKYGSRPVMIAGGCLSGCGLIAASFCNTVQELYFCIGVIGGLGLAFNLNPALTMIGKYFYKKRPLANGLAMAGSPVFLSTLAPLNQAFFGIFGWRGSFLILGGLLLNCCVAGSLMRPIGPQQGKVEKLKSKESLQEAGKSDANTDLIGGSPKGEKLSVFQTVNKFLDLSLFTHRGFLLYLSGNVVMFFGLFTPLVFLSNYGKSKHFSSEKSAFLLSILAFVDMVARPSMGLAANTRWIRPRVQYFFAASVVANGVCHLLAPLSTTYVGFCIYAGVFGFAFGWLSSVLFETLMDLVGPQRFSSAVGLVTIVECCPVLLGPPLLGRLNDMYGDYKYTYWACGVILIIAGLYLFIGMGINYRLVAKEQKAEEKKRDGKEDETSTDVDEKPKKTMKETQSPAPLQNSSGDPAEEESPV

MCT8 [3] = molecular target: T1, MCT8; assay: Transport (uptake) of radioactive ligands by MCT8 expressed in X. laevis oocytes; assay type: cell-based; set-up: the stop codon of MCT8 was removed by performing PCR using the same sense primer as above; expressed in transfected cells; host or cells: Xenopus laevis oocytes injected with cRNA transcribed from pGEM-HeJuel; details: 0.23 ng MCT8 cRNA injected; 10 nM ligand, 2 min, 25 C
MCT8 [4] = molecular target: T1, MCT8; assay: Transport kinetics of MCT8-mediated iodothyronine uptake in oocytes (Michaelis-Menten); set-up: dose or concentration left out as unconfirmed; details: net transport
Protocol: Apparent Km values were calculated by fitting the plot of uptake rate (v) versus ligand concentration (5) to the Michaelis Menten equation: v=Vmax/(1+Km/S), wherein Vmax is the maximum uptake rate, and Km the Michaelis constant. Calculations were performed using the Slide Write Plus program version 5.01 (Advanced Graphics Software).

N[C@@H](Cc1cc(I)c(Oc2cc(I)c(O)c(I)c2)c(I)c1)C(=O)O [T4, 3,3′,5,5′-tetraiodothyronine]
Substrate specificity: transport by MCT8 (in words) (MCT8 [1]; 10 nM iodothyronines or amino acids, MCT8 cRNA-injected vs uninjected oocytes): rapid uptake
Uptake into oocytes at 4 C (in words) (MCT8 [1]; 10 nM, 2 min, 4 C, marked increases at 15, 25 and 37 C): significant uptake
Na+ dependence of transport by MCT8 (MCT8 [1]; NaCl replaced by choline chloride): modest but consistent inhibition
Increase in initial uptake compared with uninjected oocytes (MCT8 [1]; oocytes injected with 4.6 ng MCT8 cRNA, 10 nM ligand, 25 C): ~10 fold
inhibition at 10 µM (MCT8 [2]; labeled T4 10 nm, inhibitor 10 μM, MCT8 cRNA-injected oocytes, read-out: % inhibition ± SEM of uptake of T4): 69 ± 7%
inhibition at 10 µM (MCT8 [2]; read-out: % inhibition ± SEM of uptake of T3): 26 ± 7%
Inhibition of labeled T4 and T3 uptake by MCT8 (in words) (MCT8 [2]; unlabeled competitor, taurocholate and probenecid data not shown): potently inhibited
Transport in rat MCT1 cRNA-injected oocytes compared to control oocytes (in words) (rat MCT1): no additional uptake
Increase in transport at lowest amount of MCT8 cRNA (MCT8 [3]): 7.3 fold
Saturability of transport by MCT8 (MCT8 [4]): saturable
